From US20240182466A1, “A Crystal Form of a Fluorine-substituted Pyridopyrazole Compound and a Preparation Method Thereof” (JUMBO DRUG BANK CO., LTD, priority 2021, published 2024)

Key:
[1] = Hygroscopicity by dynamic vapor sorption (DVS); assay type: physicochemical; conditions: 80% RH/25° C.
Description: Instrument model: SMS DVS Intrinsic Plus dynamic steam adsorption instrument.
Test condition: a sample (10-20 mg) is taken and placed in a DVS sample tray for testing.
Detailed DVS parameters are as follows:
Balance: dm/dt=0.002%/min (minimum: 10 min, and maximum: 180 min).
Drying: it is dried at 0% relative humidity (RH) until dm/dt≤0.002%/min or maximum 180 min.
RH (%) test step range: 0%-95%-0%.
SMS DVS Intrinsic Plus dynamic steam adsorption instrument.
A sample (10-20 mg) was taken and placed in a DVS sample tray for testing.

[2] = Solid stability test of crystal form (XRPD); assay type: physicochemical; conditions: influencing factors and accelerated conditions
Description: According to the “Guiding Principles for Stability Test of Raw Materials and Preparations” (General Rule 9001 of Part Four of the Chinese Pharmacopoeia 2015 Edition), the stability of the crystal form A of the compound in Formula (I) was investigated under influencing factors ((high temperature (60° C., open), high humidity (room temperature/relative humidity 92.5%, open), strong light (visible light intensity of 5000 lux and ultraviolet intensity of […], open), and accelerated conditions (40° C./75% RH, open) and (60° C./75% RH, open)).
About 20 mg of the crystal form A of the compound in Formula (I) was weighed respectively, and it was placed at the bottom of a glass sample bottle, and spread into a thin layer. Its sample was completely exposed for sampling. The samples placed under different conditions were sampled for testing (XRPD) on day 5, day 10, 1 month, 2 months, and 3 months.

EGFR = EGFR (Homo sapiens (Human), UniProt P00533); assay: EGFR kinase test (33P-ATP filter binding); assay type: biochemical
Description: (§1) Experimental example 1: EGFR, ITK, TEC, and BTK kinase'test.
(§2) Buffer condition: 20 mM HEPES(pH 7.5), 10 mM MgCl2, 1 mM EGTA, 0.02% Brij35, 0.02 mg/mL BSA, 0.1 mm Na3VO4, 2 mm; DTT, 1% DMSO.
(§3) 2.1. An indicator substrate was prepared in a reaction buffer prepared newly.
(§4) 2.2. A cofactor required was transferred to the substrate solution above.
(§5) 2.3. A kinase indicated was injected into the substrate solution and mixed gently.
(§6) 2.4. An acoustic technology was used to convey a compound in DMSO to a kinase reaction mixture (Echo550).
(§7) 2.5. ^33P-ATP (specific activity 0.01 μci/μL, finally) was fed into the reaction mixture to initiate a reaction. (ATP final concentrations were 2 μM, 5 μM, and 5 μM respectively).
(§8) 2.6. The kinase reaction was incubated at room temperature for 120 min.
(§9) 2.7. The reaction was recorded on P81 ion exchange paper (Whatman #3698-915).
(§10) 2.8. 0.75% phosphoric acid was widely used to clean a filter.
(§11) 2.9. The remaining radioactive phosphorylation substrate on filter paper was measured.
(§12) 3. Data analysis: the kinase activity data was expressed as a percentage of the remaining kinase activity in the test sample compared to the carrier (dimethyl sulfoxide) reaction. The IC50 value and curve fitting were obtained by using Prism4 software (GraphPad).

ITK = ITK (Homo sapiens (Human), UniProt Q08881); assay: ITK kinase test (33P-ATP filter binding); assay type: biochemical
Description: as §1, §2, §3, §4, §5, §6, §7, §8, §9, §10, §11, §12

TEC = TEC (Homo sapiens (Human), UniProt P42680); assay: TEC kinase test (33P-ATP filter binding); assay type: biochemical
Description: as §1, §2, §3, §4, §5, §6, §7, §8, §9, §10, §11, §12

BTK = BTK (Homo sapiens (Human), UniProt Q06187); assay: BTK kinase test (33P-ATP filter binding); assay type: biochemical; conditions: 120 min at room temperature
Description: as §1, §2, §3, §4, §5, §6, §7, §8, §9, §10, §11, §12

[3] = 33P-ATP, 120 min at room temperature

Sequence of TEC (P42680 whole entry): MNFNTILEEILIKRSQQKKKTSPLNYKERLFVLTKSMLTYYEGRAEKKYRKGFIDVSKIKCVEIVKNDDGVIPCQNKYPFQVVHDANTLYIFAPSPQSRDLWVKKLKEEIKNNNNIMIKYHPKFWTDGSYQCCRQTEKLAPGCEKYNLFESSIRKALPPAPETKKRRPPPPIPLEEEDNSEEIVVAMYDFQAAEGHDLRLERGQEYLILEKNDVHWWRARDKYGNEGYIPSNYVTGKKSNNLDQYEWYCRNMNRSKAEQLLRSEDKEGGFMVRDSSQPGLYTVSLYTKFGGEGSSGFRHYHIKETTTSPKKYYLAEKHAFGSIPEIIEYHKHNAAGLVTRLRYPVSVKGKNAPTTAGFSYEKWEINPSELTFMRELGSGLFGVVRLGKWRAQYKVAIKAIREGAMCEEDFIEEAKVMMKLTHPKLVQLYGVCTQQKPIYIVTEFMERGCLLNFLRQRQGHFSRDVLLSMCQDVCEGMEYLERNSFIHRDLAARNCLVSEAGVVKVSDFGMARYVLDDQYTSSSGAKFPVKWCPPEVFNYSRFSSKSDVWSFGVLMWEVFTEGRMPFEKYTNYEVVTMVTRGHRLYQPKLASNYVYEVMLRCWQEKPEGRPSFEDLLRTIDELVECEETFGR
Sequence of ITK (Q08881 whole entry): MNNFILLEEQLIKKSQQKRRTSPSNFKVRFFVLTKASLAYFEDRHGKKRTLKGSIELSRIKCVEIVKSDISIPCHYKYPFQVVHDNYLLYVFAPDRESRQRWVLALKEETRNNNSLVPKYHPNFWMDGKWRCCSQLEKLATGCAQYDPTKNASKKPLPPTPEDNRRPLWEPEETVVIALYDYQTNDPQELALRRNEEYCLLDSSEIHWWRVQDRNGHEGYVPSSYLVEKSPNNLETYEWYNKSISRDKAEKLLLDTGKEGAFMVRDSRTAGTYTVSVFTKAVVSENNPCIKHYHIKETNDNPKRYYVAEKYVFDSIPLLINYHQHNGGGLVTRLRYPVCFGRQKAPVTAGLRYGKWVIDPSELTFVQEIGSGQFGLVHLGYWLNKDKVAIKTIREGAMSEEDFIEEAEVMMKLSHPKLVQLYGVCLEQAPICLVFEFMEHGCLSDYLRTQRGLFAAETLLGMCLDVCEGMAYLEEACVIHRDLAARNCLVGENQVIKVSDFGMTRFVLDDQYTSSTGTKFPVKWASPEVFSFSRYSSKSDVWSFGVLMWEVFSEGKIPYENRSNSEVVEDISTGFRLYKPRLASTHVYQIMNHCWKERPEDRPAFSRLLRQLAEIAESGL
Sequence of EGFR (P00533 25-1210): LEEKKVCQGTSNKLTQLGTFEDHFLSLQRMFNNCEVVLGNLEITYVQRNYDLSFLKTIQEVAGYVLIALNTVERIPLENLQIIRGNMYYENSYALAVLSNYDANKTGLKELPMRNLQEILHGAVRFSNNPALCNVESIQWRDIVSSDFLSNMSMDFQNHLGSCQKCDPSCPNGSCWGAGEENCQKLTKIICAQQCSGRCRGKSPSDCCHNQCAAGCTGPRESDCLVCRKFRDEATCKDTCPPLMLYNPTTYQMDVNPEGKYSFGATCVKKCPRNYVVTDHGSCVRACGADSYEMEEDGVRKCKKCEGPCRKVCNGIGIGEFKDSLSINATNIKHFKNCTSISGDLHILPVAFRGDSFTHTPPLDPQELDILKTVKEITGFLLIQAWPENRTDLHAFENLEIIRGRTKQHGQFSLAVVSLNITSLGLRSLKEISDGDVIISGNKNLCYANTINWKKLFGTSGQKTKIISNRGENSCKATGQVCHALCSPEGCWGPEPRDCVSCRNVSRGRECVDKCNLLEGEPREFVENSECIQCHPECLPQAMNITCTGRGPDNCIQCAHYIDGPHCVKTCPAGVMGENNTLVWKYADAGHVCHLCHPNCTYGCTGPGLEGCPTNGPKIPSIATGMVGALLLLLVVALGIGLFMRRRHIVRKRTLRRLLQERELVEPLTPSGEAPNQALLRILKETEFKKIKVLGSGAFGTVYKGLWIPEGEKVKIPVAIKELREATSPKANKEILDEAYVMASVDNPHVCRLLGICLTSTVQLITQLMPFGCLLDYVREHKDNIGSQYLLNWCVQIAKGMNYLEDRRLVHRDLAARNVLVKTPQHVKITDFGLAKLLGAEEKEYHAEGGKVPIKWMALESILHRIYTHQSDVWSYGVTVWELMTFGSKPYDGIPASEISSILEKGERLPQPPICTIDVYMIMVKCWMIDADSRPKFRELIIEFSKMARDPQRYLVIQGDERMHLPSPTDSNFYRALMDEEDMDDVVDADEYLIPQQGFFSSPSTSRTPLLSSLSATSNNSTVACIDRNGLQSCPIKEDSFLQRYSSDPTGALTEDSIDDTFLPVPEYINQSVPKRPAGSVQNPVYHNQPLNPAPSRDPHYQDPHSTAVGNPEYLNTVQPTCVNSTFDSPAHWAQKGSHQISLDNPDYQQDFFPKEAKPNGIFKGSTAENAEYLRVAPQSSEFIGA
Sequence of BTK (Q06187 whole entry): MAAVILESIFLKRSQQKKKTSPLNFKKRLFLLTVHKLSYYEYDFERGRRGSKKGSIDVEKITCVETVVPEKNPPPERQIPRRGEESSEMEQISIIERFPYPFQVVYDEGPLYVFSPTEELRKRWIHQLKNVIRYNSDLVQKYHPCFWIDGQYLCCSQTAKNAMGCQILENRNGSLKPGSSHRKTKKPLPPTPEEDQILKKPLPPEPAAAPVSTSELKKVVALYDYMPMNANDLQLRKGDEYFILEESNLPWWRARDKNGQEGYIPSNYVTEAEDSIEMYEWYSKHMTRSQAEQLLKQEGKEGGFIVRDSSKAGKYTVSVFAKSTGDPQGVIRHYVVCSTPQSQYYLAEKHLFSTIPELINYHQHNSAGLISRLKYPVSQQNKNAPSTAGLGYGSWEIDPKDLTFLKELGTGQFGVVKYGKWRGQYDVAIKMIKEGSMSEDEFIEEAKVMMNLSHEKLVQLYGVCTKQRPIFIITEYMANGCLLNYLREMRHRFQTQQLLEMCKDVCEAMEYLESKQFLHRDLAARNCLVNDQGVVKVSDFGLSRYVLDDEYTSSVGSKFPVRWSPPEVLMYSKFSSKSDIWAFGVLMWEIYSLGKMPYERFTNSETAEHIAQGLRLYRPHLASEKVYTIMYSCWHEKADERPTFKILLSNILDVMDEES

Structure (SMILES): C=CC(=O)N1CCC[C@@H](c2nn(-c3ccc(Oc4cccc(F)c4F)cc3)c3cncc(F)c23)C1
- Hygroscopic classification [1]: slight hygroscopicity
- ΔW, hygroscopic weight increase [1]: 0.23%
- Solid stability, conclusion in words [2]: good stability

Structure (SMILES): C=CC(=O)N1CCC[C@H](c2nn(-c3ccc(Oc4cccc(F)c4F)cc3)c3cncc(F)c23)C1 (single isomer, unassigned) [Compound 1B]
- IC50 (EGFR; [3]): 829 nM
- EGFR, ITK, TEC, and BTK activity ratio: EGFR to BTK (EGFR; IC50 EGFR / IC50 BTK): 383 times,
- IC50 (ITK; [3]): 5430 nM
- EGFR, ITK, TEC, and BTK activity ratio: ITK to BTK (ITK; IC50 ITK / IC50 BTK): 2513 times,
- IC50 (TEC; [3]): 74.8 nM
- EGFR, ITK, TEC, and BTK activity ratio: TEC to BTK (TEC; IC50 TEC / IC50 BTK): 34 times
- IC50 (BTK): 2.16 nM
